Earlier results as cited in US11571411B2, “Use of a bisamide derivative of malonic acid for treating allergic and other diseases in humans and animals” (PHARMENTERPRISES ALLERGY LLC, priority 2018, dated 2023).

Columns and labels:
[1] = in vivo; cited from earlier work
[2] = molecular target: T1, H3 receptor (Homo sapiens, UniProt Q9Y5N1); details: humans, topical administration; cited from earlier work
T1 construct: host or cells: human volunteers (nasal mucosa, in vivo)
T1 sequence (Q9Y5N1 whole entry): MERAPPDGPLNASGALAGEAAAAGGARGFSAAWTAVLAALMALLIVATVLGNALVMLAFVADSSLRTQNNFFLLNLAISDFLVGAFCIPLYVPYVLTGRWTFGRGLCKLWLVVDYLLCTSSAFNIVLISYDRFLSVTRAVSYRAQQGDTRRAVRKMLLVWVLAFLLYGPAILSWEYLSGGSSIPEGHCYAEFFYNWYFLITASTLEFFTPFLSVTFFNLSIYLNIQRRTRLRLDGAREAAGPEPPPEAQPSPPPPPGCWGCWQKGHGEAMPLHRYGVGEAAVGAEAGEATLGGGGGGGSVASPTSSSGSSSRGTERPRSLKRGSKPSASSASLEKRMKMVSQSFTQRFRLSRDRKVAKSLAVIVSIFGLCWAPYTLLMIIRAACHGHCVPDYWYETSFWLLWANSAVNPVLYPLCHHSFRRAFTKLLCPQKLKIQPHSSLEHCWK

S=C(NC1CCCCC1)N1CCC(c2cnc[nH]2)CC1 [Thioperamide]
crossing of the blood-brain barrier [1]: cross the blood-brain barrier
effect on nasal blockage induced by R-alpha-methylhistamine [2]: reduced
